Assay results from patent publication US20180369327A1, “METHOD FOR TREATING OR PREVENTING OSTEOARTHRITIS” (Dong-A University Research Foundation for Industry-Academy …, priority 2017, published 2018).
Entries after “also recorded” stand apart in the source; their conditions may differ.

How the values were obtained:
[1] = system: rat articular chondrocytes; test: Cell viability assay (automated trypan blue exclusion); type: cell-based; conditions: n=4
Description: Rat articular chondrocytes for primary culture were isolated from knee joint cartilage slices by enzymatic digestion for 1 h with 0.2% type II collagenase (381 units/mg) in DMEM. After the isolated cells were collected by brief centrifugation, they were resuspended in DMEM supplemented with 10% (v/v) FBS, […] streptomycin and 50 units/ml penicillin (Gibco). The cells were plated on culture dishes at a density of 5×10^4 cells/cm^2. The medium was replaced every 2 days, and they reached confluence after approximately 5 days in culture. In each experiment, the cells from three animals were pooled and analyzed three times.
FFA were dissolved in absolute ethanol at a concentration of 500 mM and diluted to final concentrations of FFAs with the appropriate concentration of 1% (w/v) FFA-free BSA. Controls were incubated with equal concentrations of FFA-free BSA containing ethanol. To examine the effect of several chemicals, cells were pretreated with 150 μg/mL DRB or 30 μM cilostazol for 24 h or 25 ng/ml TNF-α for 3 h before FFA treatment.
siRNA transfection or combination treatment with FFAs. Transfection of siRNA was performed with the use of siPORT Amine and Opti-MEM media. Cells grown to a confluence of 40% to 50% in six-well plates were transfected with 100 nM final siRNA concentration per well. Transfection mixture was added to each well, and incubation occurred for 4 h. Then 2 ml of growth medium was added, and cells were incubated for another 20 h. After siRNA transfection medium was removed, each well was washed in PBS solution. Cells were treated with FFAs for 24 hours.
Recombinant adenoviral STAMP2 was prepared as described previously34. Cells (1×10^7) were infected with recombinant adenoviral STAMP2 at multiplicities of infection (MOI) of 500, 1000 and 1500 to the medium.
An automated trypan blue exclusion assay was undertaken. Total cells and trypan bluestained (i.e., nonviable) cells were counted, and the percentage of nonviable cells was calculated using the Vi-Cell cell counter (Beckman Coulter, Miami, Fla., USA).

STAMP2 = test: Western blot of STAMP2 protein in articular chondrocytes; type: cell-based, rat; conditions: n=4
Description: (§1) Rat articular chondrocytes for primary culture were isolated from knee joint cartilage slices by enzymatic digestion for 1 h with 0.2% type II collagenase (381 units/mg) in DMEM. After the isolated cells were collected by brief centrifugation, they were resuspended in DMEM supplemented with 10% (v/v) FBS, […] streptomycin and 50 units/ml penicillin (Gibco). The cells were plated on culture dishes at a density of 5×10^4 cells/cm^2. The medium was replaced every 2 days, and they reached confluence after approximately 5 days in culture. In each experiment, the cells from three animals were pooled and analyzed three times. FFA were dissolved in absolute ethanol at a concentration of 500 mM and diluted to final concentrations of FFAs with the appropriate concentration of 1% (w/v) FFA-free BSA. Controls were incubated with equal concentrations of FFA-free BSA containing ethanol. […] Cell (2×10^6) were washed twice with ice-cold PBS. Cells were resuspended in lysis buffer [200 ll of icecold solubilizing buffer (300 mM NaCl, 50 mM Tris-Cl (pH 7.6), 0.5% Triton X-100, protease inhibitor cocktail)] and incubated at 4° C. for 30 min. The lysates were centrifuged at 14,000 rpm for 20 min at 4° C. The protein concentrations of the cell lysates were measured with the Bradford protein assay reagent (Bio-Rad). Then, 50 μg of proteins was loaded onto 15 SDS-PAGE. The separated proteins were transferred to nitrocellulose membranes (Amersham Pharmacia Biotech, Piscataway, N.J., USA) and probed with each antibody. Immunostaining with the antibodies was carried out using the Super Signal West Pico enhanced chemiluminescence substrate and detected with LAS-3000PLUS.

FSP27 = test: Western blot of FSP27 protein in articular chondrocytes; type: cell-based, rat; conditions: n=4
Description: as §1

caspase-3 and -7 = test: Western blot of apoptosis-related factors (caspase-3 and -7 activation); type: cell-based, rat; conditions: 100 μM DRB with 1 mM oleate; n=4
Description: as §1, with “The lysates were centrifuged at 14,000 rpm for 20 min at 4° C.” left out, “Then, 50 μg of proteins was loaded onto 15 SDS-PAGE. The separated proteins were transferred to nitrocellulose membranes (Amersham Pharmacia Biotech, Piscataway, N.J., USA) and probed with each antibody.” left out

[2] = system: lipid droplets (LD) in rat articular chondrocytes; test: Lipid droplet staining (Nile red, BODIPY), confocal microscopy and quantification; type: cell-based
Description: Rat articular chondrocytes for primary culture were isolated from knee joint cartilage slices by enzymatic digestion for 1 h with 0.2% type II collagenase (381 units/mg) in DMEM. After the isolated cells were collected by brief centrifugation, they were resuspended in DMEM supplemented with 10% (v/v) FBS, […] streptomycin and 50 units/ml penicillin (Gibco). The cells were plated on culture dishes at a density of 5×10^4 cells/cm^2. The medium was replaced every 2 days, and they reached confluence after approximately 5 days in culture. In each experiment, the cells from three animals were pooled and analyzed three times. FFA were dissolved in absolute ethanol at a concentration of 500 mM and diluted to final concentrations of FFAs with the appropriate concentration of 1% (w/v) FFA-free BSA. Controls were incubated with equal concentrations of FFA-free BSA containing ethanol. […] Cells cultured on a coverslip were incubated with diluted Nile red or BODIPY 493/503. Some sections were double-labelled with TUNEL and BODIPY 493/503 and counterstained with Hoechst 33342. Fluorescence images were observed and analyzed using a Zeiss LSM 510 laser-scanning confocal microscope (Goettingen, Germany). Twenty cells from each experiment were observed and auantification of fluorescence intensity of the confocal images were obtained with the use of ImageJ software. Fluorescence intensity was expressed as AU.

[3] = system: rat articular chondrocytes; test: Total cytosol FFA content measurement; type: cell-based
Description: Cell were collected after treatment with trypsin (0.2% trypsin, 0.02% EDTA and 0.2% glucose in PBS) and pelleted by centrifugation (200×g for 5 min at 4° C.). Cell pellet was resuspended in ice-cold hypotonic lysis medium containing 20 mM Tris-HCl, pH 7.4 and 1 mM EDTA. Cells were homogenized with a Dounce homogenizer and then centrifuged (800×g for 5 min at 4° C.). The post-nuclear supernatant fraction was ultra-centrifuged ([…] for 5 min at 4° C.) using Beckman Table-top ultracentrifuge. LD fraction with the distinct white band on the preparation was removed with a pipetman and LD-free cytosol was used for FFA measurement. Cytosol FFA levels were measured using a commercial free fatty acid quantification kit from Abcam (ab65341).

[4] = system: rat articular chondrocytes; test: Phase contrast microscopy of oleate-induced cell death; type: cell-based; conditions: 25 ng/ml TNF-α, 1.5 mM oleate; n=4

## OC[C@H]1O[C@@H](n2cnc3cc(Cl)c(Cl)cc32)[C@H](O)[C@@H]1O [DRB, 5,6-dichlorobenzimidazol riboside]
[1]; 0.4 mM oleate with 0.6 or 1.6 mM palmitate
  influence on lipotoxicity of oleate/palmitate combination (viability): reciprocal influences on lipotoxicity
STAMP2; DRB
  expression level of STAMP2: decreased
FSP27; 100 μM DRB with 1 mM oleate
  level of FSP27 protein: decreased the levels of FSP27 protein
FSP27; DRB
  expression level of FSP27: decreased
caspase-3 and -7
  activation of caspase-7 and -3: activated caspase-7 and -3
[2]; DRB in cells treated with 0.4 mM oleate and 0.6 mM palmitate
  LD accumulation: significantly reduced the LD accumulation
[2]; DRB pre-/co-treatment, 1 mM oleate
  LD size and LD accumulation: reversed oleate-induced LD enlargement; also recorded: reduces LD size and LD accumulation
[2]; co-treatment with DRB versus 1 mM oleate, n=4
  total LD volume: significantly decreased
[3]; 1.0 mM oleate with DRB versus without
  FFA level in the cytosol: significantly increased the FFA level in the cytosol
[3]; cells treated with 0.6 mM palmitate and 0.4 mM oleate, n=4
  FFA level in the cytosol: significantly increased the FFA level in the cytosol

## CCCCCCCCCCCCCCCCCC(=O)O [stearate, stearic acid]
[1]; FFA alone at 0.5 to 2 mM
  cell viability: significantly reduced cell viability
STAMP2; FFA at toxic concentrations
  expression level of STAMP2: reduced the expression level of STAMP2

## TNF-α
[1]; 25 ng/ml TNF-α, 1.5 mM oleate
  effect on oleate-induced cell death (viability): completely reversed 1.5 mM oleate-induced cell death; also recorded: prevented 1.5 mM oleate-induced cell death
STAMP2; 25 ng/ml TNF-α, 1.5 mM oleate
  effect on oleate-induced downregulation of STAMP2 protein: completely reversed the 1.5 mM oleate-induced downregulation of the expression level of STAMP2 protein; also recorded: reversed 1.5 mM oleate (0)-induced downregulation of STAMP2 protein
[2]; TNF-α, 1.5 mM oleate
  effect on oleate-induced reduction of LD size and total LD volume: completely reversed the 1.5 mM oleate-induced reduction in total LD volume; also recorded: reversed 1.5 mM oleate-induced reduction of LD size and total LD volume
[4]
  effect on oleate-induced cell death (phase contrast microscopy): prevented oleate-induced cell death

## zVAD-fmk
[1]; zVAD-fmk with 1.5 mM oleate
  effect on oleate-induced cell death (viability): significantly prevented 1.5 mM oleate-induced cell death
